Laboratory results as given in US20080262228A1, “Metabolites of 5-fluoro-8- quinoline and methods of preparation and uses thereof” (Wyeth, priority 2006, published 2008).
Where a name gives a salt, the structure may show the parent alone.

Experiments:
[1] = Metabolite characterization in cryopreserved hepatocytes; settings: hepatocyte incubations, 20 μM; R, rat; D, dog; H, human; Media = decomposition product observed in media control
Method: Pooled male rat, dog, and mixed male and female human cryopreserved hepatocytes were used in this study. The cryopreserved hepatocytes (two vials from each species; three to five million viable cells per vial) were thawed in a 37° C. water bath with gentle shaking until the ice was almost melted. The suspensions from the two individual vials of the same species were immediately transferred to a 50 mL centrifuge tube containing pre-warmed thawing media at 37° C. with gentle handshaking to prevent the cells from settling. The cell suspension was centrifuged at 50 g for 5 min at 4° C. Supernatants were discarded and the pellets were resuspended in pre-warmed incubation media (8 mL) at 37° C. […] [^14C]COMPOUND I (20 μM) was incubated in a 12-well plate containing hepatocyte suspensions at 1.0 mL per well in duplicate (≧1 million viable cells/well) at 37° C. for 1 or 4 hr in the presence of 5% CO2:95% O2. Control incubations without hepatocytes were also run under the same conditions. Positive controls containing [^14C]7-ethoxycoumarin (100 μM) were also incubated under the same conditions, but only for 1 hr. At the end of the incubations, reactions were stopped by adding acetonitrile with 2% acetic acid (1 mL), mixed for 10 min, followed by centrifugation at 4000 rpm for 10 min at 4° C. Aliquots (50 μL) of supernatants were analyzed by HPLC with UV and radioactivity flow detection for metabolite profiling, and by LC/MS for metabolite identification as described in below. To determine extraction recovery, aliquots (20 μL) of supernatants were analyzed for radioactivity content utilizing a Packard Tri-Carb Model 3100 TR liquid scintillation counter and 5 mL of Ultima Gold.
The HPLC system used for mass spectrometric analysis was a Waters Alliance model 2695 HPLC system (Waters Corp). It was equipped with a built-in autosampler and a model 996 diode array UV detector. The UV detector was set to monitor 210-400 nm. The HPLC conditions were the same as those described hereinabove with the following exceptions. […]

[2] = Metabolite profiling in liver microsomes and S9; type: in vitro ADME, rat, dog, monkey, human; settings: liver microsomes and S9, 10 μM COMPOUND I, 30 min; species letters not defined
Method: Microsomal incubations for metabolite profiling were similar to those described above for intrinsic clearance determination (see Table 1). Aliquots of COMPOUND I (10 μL), dissolved in DMSO:methanol (1:9), were added to a 96-well plate containing phosphate buffer, and MgCl2 and the liver microsomes at 37° C. using the same automation apparatus as for the stability study described hereinabove. The reactions were initiated by the addition of the UDPGA and NADPH generating system. The final incubation volume for all samples was 1 mL and the length of incubation was 30 min. […] Three 250 μL aliquots were transferred to a 96-well plate containing 900 μL acetonitrile to precipitate the protein. […] The samples were then reconstituted in 150 μL of 20% methanol in water. The three aliquots for each sample were pooled and analyzed by LC/MS.
S9 incubation buffer and cofactors were chosen to allow N-acetylation and carbamoyl glucuronidation in addition to oxidative and glucuronidation pathways possible in liver microsomes. Incubations of sulfamethazine and SCA-136 with liver S9 were used as positive controls for N-acetylation and carbamoyl glucuronidation, respectively. Following a 30 min. incubation, 750 μL from each sample were added to 900 μL acetonitrile. Following centrifugation and evaporation of the supernatant, the samples were reconstituted in 450 μL of 20% methanol in water for analysis by HPLC/UV and LC/MS (see below).
The HPLC system used for mass spectrometric analysis was an Agilent 1100 HPLC (Agilent Technologies, Palo Alto, Calif.) equipped with a binary pump and a diode array UV detector. The UV detector was set to monitor 190-400 nm. Separations were accomplished on a Luna C18 column (150×2.1 mm, 5 μm) (Phenomenex Incorporated, Torrance, Calif.).
The mass spectrometer used for metabolite characterization was a Finnigan LCQ Deca ion trap mass spectrometer (Thermo Electron Corp.). […] Full scan and data dependent MS2 and MS3 mass spectra were recorded. Finnigan Xcalibur software (version 1.3) was used for control of equipment and recording of data from UV and LC/MS analyses.
Chromatographic profiles of COMPOUND I (10 μM) metabolites in incubations with liver microsomes in the presence of NADPH are presented in FIG. 1. Chromatographic profiles of COMPOUND I (10 μM) metabolites in incubations with liver microsomes in the presence of NADPH and UDPGA are presented in FIG. 2. Chromatographic profiles of COMPOUND I (10 μM) metabolites in incubations with liver S9 in the presence of NADPH, UDPGA and acetyl coenzyme A (CoA) are presented in FIG. 3. In incubations containing NADPH, UDPGA and acetyl CoA, fourteen Phase I metabolites (M1, M6, M8, M12, M13, M14, M15, M16, M17, M18, M20, M21, M22 and M23) and six Phase II metabolites (M2, M3, M5, M7, M9 and M10) were observed. In incubations without cofactors, no metabolites were observed.
LC/MS analysis was conducted on extracts of mouse, rat, monkey and human liver microsomes and S9. The mass spectral data for the characterized COMPOUND I metabolites are discussed below.

in vitro = settings: microsomes
Method: Experiments were conducted to determine the intrinsic clearance by substrate depletion for COMPOUND I metabolism in liver microsomes in the presence of NADPH and UDPGA. Incubations containing midazolam (0.2 μM with 0.1 mg/mL liver microsomes) or diclofenac (1 μM with 1 mg/mL liver microsomes) were also performed as positive controls for oxidative and glucuronidation activity, respectively. Sample preparation and incubation were performed on a MultiProbe IIEX Robotic Liquid Handling System (Perkin-Elmer, Shelton, Conn.) and a Micromix 5 (Packard, Downers Grove, Ill.). Samples were pre-incubated at 37° C. Control incubations were conducted under the same conditions without cofactors. At specified time points (0, 10, 20 and 30 min), 150 μL aliquots were transferred to tubes with 500 μL acetonitrile containing 30 ng/mL of the internal standard (furosemide) to precipitate the protein. Samples were centrifuged at 4° C. for 10 min at 3400 rpm (ThermoForma, Marietta, Ohio). The supernatant (400 μL) was transferred to a clean test tube and the acetonitrile evaporated under a stream of nitrogen in a Turbo Vap (Caliper Life Sciences, Hopkinton, Mass.). The samples were then reconstituted in 200 μL of 20% methanol in water and analyzed by LC/MS.
The HPLC system used was a Surveyor HPLC (Thermo Electron Corp., San Jose, Calif.). Separations were accomplished on a Supelcosil LC-C18 column (150×4.6 mm, 5 μm) (Supelco, Bellefonte, Pa.). The column temperature was maintained at ambient and the sample chamber was at 10° C. Mobile phase A was 5 mM ammonium acetate in water and mobile phase B was methanol.
The mass spectrometer used for microsomal stability analysis was a TSQ Quantum (Thermo Electron Corp.; San Jose, Calif.) equipped with an electrospray ionization (ESI) source and operated in the positive ionization mode.
Peak area ratios for COMPOUND I against the internal standard were used to express the % remaining at given time points. The percent of remaining COMPOUND I was calculated by dividing the […]. In vitro intrinsic clearance (CLint) of COMPOUND I was calculated by linear regression of log % remaining vs time plots using Microsoft Excel, 7.0 and normalizing to mg protein content. Metabolic half-life (t1/2) was calculated by dividing 0.693 by the intrinsic clearance.

Row | SMILES | Source [1] | Species (in which the metabolite was characterized) [2] | half-life at 1 μM (in vitro; both, human) | microsomal CLint at 1 μM (in vitro; both, human) | half-life at 1 μM (in vitro; male, Sprague-Dawley, rat) | microsomal CLint at 1 μM (in vitro; male, Sprague-Dawley, rat) | half-life at 1 μM (in vitro; male, beagle, dog) | microsomal CLint at 1 μM (in vitro; male, beagle, dog) | half-life at 1 μM (in vitro; male, monkey) | microsomal CLint at 1 μM (in vitro; male, monkey)
1 | Oc1cc(N2CCN(C3CCN(c4ccc(F)c5cccnc45)CC3)CC2)c2ncccc2c1 [Metabolite M21, 8-{4-[1-(5-fluoroquinolin-8-yl)piperidin-4-yl]piperazin-1-yl}quinolin-6-ol trihydrochloride] | R (trace), D, H | R, D, M, H | – | – | – | – | – | – | – | –
2 | COc1cc(N2CCN(C3CCN(c4ccc(F)c5cccnc45)CC3)CC2)c2ncccc2c1 [COMPOUND I, 5-Fluoro-8-{4-[4-(6-methoxyquinolin-8-yl)piperazin-1-yl]piperidin-1-yl}quinoline] | All | R, D, M, H | 7 min | 100 µL/min/mg | 2 min | 332 µL/min/mg | 13 min | 55 µL/min/mg | 2 min | 312 µL/min/mg
